From patent publication US20140142180A1, “METHODS OF TREATING TUMORS HAVING ELEVATED MCT1 EXPRESSION” (Whitehead Institute for Biomedical Research, priority 2012, published 2014)

Tests used:
GAPDH = GAPDH (Homo sapiens, UniProt P04406); conditions: covalent bond with active-site cysteine; cited from earlier work
MCT1 [1] = target: T1, MCT1 (Homo sapiens, UniProt P53985); test: 14C-3-BrPA uptake assay, wild type KBM7 cells; assay type: cell-based; conditions: wild type KBM7 in HBSS, up to 20 minutes, unlabeled competitor
T1 construct: endogenous in cells; host or cells: wild type KBM7 cells (near-haploid human cell line)
T1 sequence (P53985 1-500): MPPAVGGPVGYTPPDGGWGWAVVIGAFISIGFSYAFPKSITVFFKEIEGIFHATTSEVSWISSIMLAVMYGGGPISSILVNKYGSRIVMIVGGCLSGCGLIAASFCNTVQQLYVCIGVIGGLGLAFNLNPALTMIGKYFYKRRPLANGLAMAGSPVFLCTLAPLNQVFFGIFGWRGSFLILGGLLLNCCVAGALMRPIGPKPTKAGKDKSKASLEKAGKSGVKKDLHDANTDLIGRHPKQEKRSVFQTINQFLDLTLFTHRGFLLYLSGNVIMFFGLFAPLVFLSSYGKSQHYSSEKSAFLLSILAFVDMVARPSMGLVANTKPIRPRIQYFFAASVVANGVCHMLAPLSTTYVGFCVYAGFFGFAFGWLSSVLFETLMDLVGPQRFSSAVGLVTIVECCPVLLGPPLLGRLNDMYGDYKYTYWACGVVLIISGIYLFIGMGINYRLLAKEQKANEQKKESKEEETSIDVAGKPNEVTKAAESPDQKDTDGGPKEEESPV
T1 sequence (P35613 140-385 partner limits assumed): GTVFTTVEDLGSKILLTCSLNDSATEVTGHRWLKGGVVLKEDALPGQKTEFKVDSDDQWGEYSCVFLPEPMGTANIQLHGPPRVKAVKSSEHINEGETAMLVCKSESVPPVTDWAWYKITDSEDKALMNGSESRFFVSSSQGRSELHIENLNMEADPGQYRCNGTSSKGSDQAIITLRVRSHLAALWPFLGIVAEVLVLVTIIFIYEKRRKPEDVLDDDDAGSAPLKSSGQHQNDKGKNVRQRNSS
Protocol: Wild type KBM7 or MCT1-null cells were seeded in HBSS and exposed for up to 20 minutes to 100 μM ^14C-labeled 3-BrPA (6.8 mCi/mmole) (Moravek) with or without competitor molecules like 3-BrPA, Pyruvate, L-Lactate and D-Lactate. Cells were washed with cold HBSS, lysed in a NaOH buffer, and uptake measured using a liquid scintillation counter.

MCT1 [2] = conditions: cited from earlier work

Chain of GAPDH (P04406 whole entry, species assumed): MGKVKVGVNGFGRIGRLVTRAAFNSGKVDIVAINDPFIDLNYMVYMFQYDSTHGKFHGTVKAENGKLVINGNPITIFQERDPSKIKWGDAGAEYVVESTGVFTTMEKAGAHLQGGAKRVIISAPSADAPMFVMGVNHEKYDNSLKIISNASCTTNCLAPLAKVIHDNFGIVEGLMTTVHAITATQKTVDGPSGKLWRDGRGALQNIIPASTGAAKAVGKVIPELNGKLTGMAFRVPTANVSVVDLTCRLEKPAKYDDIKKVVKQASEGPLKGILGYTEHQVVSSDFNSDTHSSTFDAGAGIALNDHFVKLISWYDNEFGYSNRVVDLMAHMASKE

CC1=C[C@@]23C(COC(=O)C24CO4)C(C(=O)O)=CC3[C@@H]1C (some centres unmarked) [Pentalenolactone]
inhibition of GAPDH (GAPDH): potently inhibit

CC(C)C1CC[C@@]2(CO2)[C@H]2C(=O)OCC(C(=O)O)=C[C@H]12 (some centres unmarked) [koningic acid]
inhibition of GAPDH (GAPDH): potently inhibit

CC(O)C(=O)O (centres unmarked) [lactate]
competition with the uptake of radiolabeled 3-BrPA (MCT1 [1]): to a lesser extent

N#C/C(=C\c1ccc(O)cc1)C(=O)O [α-cyano-4-hydroxycinnamate (CHC), α-cyano-4-hydroxycinnamate]
antitumor effect (MCT1 [2]; alone or in combination with radiotherapy in mice): potent antitumor affects
toxicity (MCT1 [2]; mice): without exerting overt toxicity
